Measured values taken from US20200263231A1, “Fluorogenic dyes for high sensitivity DNA detection” (LIFE TECHNOLOGIES CORPORATION, priority 2016, published 2020).

Key:
calf thymus DNA = experiment: Fluorescence emission and enhancement of compounds bound to calf thymus DNA; type: binding; conditions: 0.8 μM compound with 500 ng/ml calf thymus DNA in TE buffer; for Emission Max: excited at 488 nm; for Fluorescence Enhancement: emission area 500-715 nm compared to compound 1, defined as 1000-fold
Description: Compounds 1-65 were prepared and their fluorescence absorption and emission characteristics were measured. Intrinsic fluorescence of the compounds only (without DNA) was negligible. Emission spectra for the compounds bound to dsDNA were obtained by incubating 0.8 μM compound with 500 ng/ml calf thymus DNA in TE buffer (10 mM Tris-HCl, pH 7.5, 1 mM EDTA) in a final volume of 3 ml. Measurements were made using PerkinElmer LS 55 (F-11) Fluorescence spectrometer. Samples were excited at 488 nm and fluorescence emission was measured with emission slit widths of 2.5 nm. Absorption maxima were determined according to standard techniques.
Fluorescence enhancement measurements of the compounds were obtained by incubating 0.8 μM compound with 500 ng/ml calf thymus DNA with compounds at a final concentration of 0.8 μM in TE buffer. Compound 1 was used as an internal standard to control for variability (e.g., in excitation light intensity). The area-under-curve of fluorescence emission spectra from 500 nm to 715 nm was calculated, and compared to that of compound 1, which was defined as having 1000-fold fluorescence enhancement relative to fluorescence of the compound alone.

[1] = UV/VIS absorption spectra; type: physicochemical; conditions: 10 μM compound in 50 mM potassium phosphate buffer (pH 7.0)
Description: The UV/VIS absorption spectra were obtained with 10 μM compound solution in 50 mM potassium phosphate buffer (pH 7.0) in a final volume of 3 mL. Measurements were carried out using a Lambda 245 spectrophotometer from Perkin Elmer.

SMILES | Emission Max (calf thymus DNA) | Fluorescence Enhancement (calf thymus DNA) | Absorbance Max [1]
CCN(CCC[N+](C)(C)Cc1cccc(OC)c1)C1=C/C(=C/c2sc3ccccc3[n+]2C)c2ccccc2N1c1ccccc1.[Br-].[I-] [Compound 20] | 523 nm | 871 fold | 497 nm
CCCCN(CCCN(C)C)C1=C/C(=C/c2sc3ccccc3[n+]2C)c2ccccc2N1c1ccccc1.[I-] [Compound 8] | 525 nm | 946 fold | 495 nm
CCN(CC[N+](C)(C)CC)C1=C/C(=C/c2sc3ccccc3[n+]2C)c2ccc(OC)cc2N1c1ccccc1.[I-].[I-] [Compound 57] | 521 nm | 877 fold | 496 nm
CCCCN(CCC[N+](C)(C)Cc1cccc(OC)c1)C1=C/C(=C/c2sc3ccccc3[n+]2C)c2ccccc2N1c1ccccc1.[Br-].[I-] [Compound 14] | 526 nm | 907 fold | 497 nm
CCCN(CCC[N+](C)(C)CC)C1=CC(=Cc2sc3ccccc3[n+]2C)c2ccc(OC)cc2N1c1ccccc1.[I-].[I-] [Compound 43] | 519 nm | 1033 fold | 494 nm
CCCN(CCC[N+](C)(C)CCO)C1=C/C(=C/c2sc3ccccc3[n+]2C)c2ccccc2N1c1ccccc1.[I-].[I-] [Compound 5] | 523 nm | 954 fold | 501 nm
CN(C)CCCN(C)C1=C/C(=C/c2sc3ccccc3[n+]2C)c2ccccc2N1c1ccccc1.[I-] [Compound 21] | 522 nm | 639 fold | 491 nm
CCN(CC[N+](C)(C)Cc1ccccc1)C1=C/C(=C/c2sc3ccccc3[n+]2C)c2ccc(OC)cc2N1c1ccccc1.[I-].[I-] [Compound 60] | 522 nm | 878 fold | 500 nm
CCN(CCC[N+](C)(C)Cc1ccccc1)C1=C/C(=C/c2sc3ccccc3[n+]2C)c2ccc(OC)cc2N1c1ccccc1.[Br-].[I-] [Compound 53] | 520 nm | 1011 fold | 490 nm
CCN(CCC[N+](C)(C)CCO)C1=C/C(=C/c2sc3ccccc3[n+]2C)c2ccc(OC)cc2N1c1ccccc1 [Compound 52] | 519 nm | 1031 fold | 490 nm
CCCN(CCC[N+](C)(C)Cc1cccc(OC)c1)C1=C/C(=C/c2sc3ccccc3[n+]2C)c2ccccc2N1c1ccccc1.[Br-].[Cl-] [Compound 7] | 522 nm | 978 fold | 502 nm
CCCN(CCC[N+](C)(C)Cc1cccc(OC)c1)C1=CC(=Cc2sc3ccccc3[n+]2C)c2ccc(OC)cc2N1c1ccccc1.[Br-].[I-] [Compound 47] | 518 nm | 1038 fold | 495 nm
CCCCN(CCC[N+](C)(C)CC)C1=C/C(=C/c2sc3ccccc3[n+]2C)c2ccccc2N1c1ccccc1.[I-].[I-] [Compound 10] | 526 nm | 926 fold | 496 nm
C[n+]1c(/C=C2/C=C(CCC[N+](C)(C)C)N(c3ccccc3)c3ccccc32)sc2ccccc21 [Compound 65] | 530 nm | 136 fold | 527 nm
CCCCN(CCC[N+](C)(C)CC)C1=CC(=Cc2sc3ccccc3[n+]2C)c2ccc(OC)cc2N1c1ccccc1.[I-].[I-] [Compound 36] | 521 nm | 1071 fold | 489 nm
CCCCN(CCC[N+](C)(C)CCC)C1=C/C(=C/c2sc3ccccc3[n+]2C)c2ccccc2N1c1ccccc1.[I-].[I-] [Compound 11] | 524 nm | 903 fold | 496 nm

SMILES | Emission Max (calf thymus DNA) | Fluorescence Enhancement (calf thymus DNA) | Absorbance Max [1]
CCCN(CCC[N+](C)(C)CCC)C1=CC(=Cc2sc3ccccc3[n+]2C)c2ccc(OC)cc2N1c1ccccc1.[I-].[I-] [Compound 44] | 518 nm | 1101 fold | 494 nm
CCN(CCC[N+](C)(C)Cc1ccccc1)C1=C/C(=C/c2sc3ccccc3[n+]2C)c2ccccc2N1c1ccccc1.[Br-].[I-] [Compound 19] | 524 nm | 884 fold | 497 nm
CCCN(CCCN(C)C)C1=C/C(=C/c2sc3ccccc3[n+]2C)c2ccccc2N1c1ccccc1 [Compound 1, reference compound] | 523 nm | 1000 fold | 500 nm
CN(C)CCCC1=C/C(=C/c2sc3ccccc3[n+]2C)c2ccccc2N1c1ccccc1 [Compound 64] | 529 nm | 204 fold | 527 nm
COc1cccc(C[N+](C)(C)CCCN(C)C2=C/C(=C/c3sc4ccccc4[n+]3C)c3ccccc3N2c2ccccc2)c1.[Br-].[I-] [Compound 27] | 521 nm | 668 fold | 498 nm
CCCN(CCC[N+](C)(C)CC)C1=C/C(=C/c2sc3ccccc3[n+]2C)c2ccccc2N1c1ccccc1.[Cl-].[I-] [Compound 3] | 524 nm | 997 fold | 501 nm
C[n+]1ccn(C2=C/C(=C/c3sc4ccccc4[n+]3C)c3ccccc3N2c2ccccc2)c1.[I-].[I-] [Compound 62] |  | 0.3 fold | 519 nm
CN(CCC[N+](C)(C)CCO)C1=C/C(=C/c2sc3ccccc3[n+]2C)c2ccccc2N1c1ccccc1.[I-].[I-] [Compound 25] | 523 nm | 640 fold | 497 nm
CCCCN(CCC[N+](C)(C)Cc1ccccc1)C1=C/C(=C/c2sc3ccccc3[n+]2C)c2ccccc2N1c1ccccc1.[Br-].[I-] [Compound 13] | 523 nm | 922 fold | 496 nm
CCN(CC[N+](C)(C)CC)C1=C/C(=C/c2sc3ccccc3[n+]2C)c2ccccc2N1c1ccccc1.[Cl-].[I-] [Compound 30] | 526 nm | 638 fold | 506 nm
CCN(CCC[N+](C)(C)C)C1=C/C(=C/c2sc3ccccc3[n+]2C)c2ccccc2N1c1ccccc1.[I-].[I-] [Compound 16] | 523 nm | 863 fold | 496 nm
CCN(CC[N+](C)(C)Cc1ccccc1)C1=C/C(=C/c2sc3ccccc3[n+]2C)c2ccccc2N1c1ccccc1.[Br-].[I-] [Compound 32] | 527 nm | 672 fold | 507 nm
CCN(CC[N+](C)(C)Cc1cccc(OC)c1)C1=C/C(=C/c2sc3ccccc3[n+]2C)c2ccccc2N1c1ccccc1.[Br-].[I-] [Compound 33] | 526 nm | 652 fold | 507 nm
CCN(CCN(C)C)C1=C/C(=C/c2sc3ccccc3[n+]2C)c2ccccc2N1c1ccccc1.[Cl-] [Compound 28] | 525 nm | 672 fold | 504 nm
CCN(CCC[N+](C)(C)C)C1=CC(=Cc2sc3ccccc3[n+]2C)c2ccc(OC)cc2N1c1ccccc1.[I-].[I-] [Compound 49] | 520 nm | 1035 fold | 490 nm
CCCCN(CCC[N+](C)(C)CCC)C1=CC(=Cc2sc3ccccc3[n+]2C)c2ccc(OC)cc2N1c1ccccc1.[I-].[I-] [Compound 37] | 519 nm | 1089 fold | 489 nm
